Assay results reported in ChEMBL document CHEMBL5113513, “Selective Inhibitors of Medium-Size S1' Pocket Matrix Metalloproteinases: A Stepping Stone of Future Drug Discovery” (J Med Chem, 2022).

Assays:
[1] = target: T1, Matrix metalloproteinase-9 (Homo sapiens, UniProt P14780); assay: Inhibition of MMP-9 (unknown origin)
[2] = target: T2, Stromelysin-1 (Homo sapiens, UniProt P08254); assay: Inhibition of MMP-3 (unknown origin)
[3] = target: T3, Matrilysin (Homo sapiens, UniProt P09237); assay: Inhibition of MMP-7 (unknown origin)
T3 sequence (P09237 whole entry): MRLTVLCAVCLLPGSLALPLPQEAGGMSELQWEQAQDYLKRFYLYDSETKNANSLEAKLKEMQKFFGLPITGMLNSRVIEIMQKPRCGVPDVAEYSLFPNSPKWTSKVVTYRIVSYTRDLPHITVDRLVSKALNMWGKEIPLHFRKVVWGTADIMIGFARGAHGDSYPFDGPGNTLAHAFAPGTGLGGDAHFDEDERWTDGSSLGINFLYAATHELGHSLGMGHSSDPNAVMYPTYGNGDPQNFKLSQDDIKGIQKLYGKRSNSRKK

[4] = target: T4, 72 kDa type IV collagenase (Homo sapiens, UniProt P08253)
[5] = target: T5, Interstitial collagenase (Homo sapiens, UniProt P03956); assay: Inhibition of MMP-1 (unknown origin)
T5 sequence (P03956 whole entry): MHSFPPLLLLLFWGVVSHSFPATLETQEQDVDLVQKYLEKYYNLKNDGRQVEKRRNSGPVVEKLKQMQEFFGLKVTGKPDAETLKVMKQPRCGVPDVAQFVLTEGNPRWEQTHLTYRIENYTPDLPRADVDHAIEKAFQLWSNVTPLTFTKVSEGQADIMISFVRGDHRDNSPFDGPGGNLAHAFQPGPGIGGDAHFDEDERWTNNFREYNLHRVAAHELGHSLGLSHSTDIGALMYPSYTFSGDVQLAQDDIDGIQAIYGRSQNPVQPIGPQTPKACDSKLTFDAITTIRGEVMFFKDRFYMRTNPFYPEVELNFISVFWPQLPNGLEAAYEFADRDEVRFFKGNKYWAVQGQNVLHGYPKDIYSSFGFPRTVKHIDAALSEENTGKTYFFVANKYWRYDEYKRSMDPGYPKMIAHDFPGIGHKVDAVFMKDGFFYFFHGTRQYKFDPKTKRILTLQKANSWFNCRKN

[6] = target: T6, Matrix metalloproteinase-14 (Homo sapiens, UniProt P50281); assay: Inhibition of MMP-14 (unknown origin)
[7] = target: T7, Collagenase 3 (Homo sapiens, UniProt P45452)
Description: Inhibition of MMP-13 (unknown origin)

[8] = target: T8, Neutrophil collagenase (Homo sapiens, UniProt P22894); assay: Inhibition of MMP-8 (unknown origin)
[9] = target: Macrophage metalloelastase (Homo sapiens, UniProt P39900); assay: Inhibition of MMP-12 (unknown origin)
[10] = target: T1, Matrix metalloproteinase-9; assay: Inhibition of MMP-9 (unknown origin) catalytic activity using Ac-PLG-[2-mercapto-4-methylpentanoyl]-LG-OC2H5 as substrate and measured upto 30 mins by microplate reader analysis
[11] = target: T4, 72 kDa type IV collagenase; assay: Inhibition of MMP-2 (unknown origin) catalytic activity using Ac-PLG-[2-mercapto-4-methylpentanoyl]-LG-OC2H5 as substrate and measured upto 30 mins by microplate reader analysis
[12] = target: T9, Stromelysin-2 (Homo sapiens, UniProt P09238); assay: Inhibition of MMP-10 (unknown origin)
[13] = target: T1, Matrix metalloproteinase-9; assay: Inhibition of MMP-9 (unknown origin) using Mca-Pro-Leu-Gly-Leu-Dpa-Ala-Arg-NH2 as substrate by fluorimetric assay
[14] = target: T4, 72 kDa type IV collagenase; assay: Inhibition of MMP-2 (unknown origin) using Mca-Pro-Leu-Gly-Leu-Dpa-Ala-Arg-NH2 as substrate by fluorimetric assay
[15] = target: T2, Stromelysin-1; assay: Inhibition of human MMP-3 expressed in Escherichia coli BL21(DE3) using Mca-Pro-Leu-Gly-Leu-Dpa-Ala-Arg-NH2 as substrate preincubated for 30 mins followed by susbstrate addition by photon-counter spectrophotometer analysis
[16] = target: T8, Neutrophil collagenase; assay: Inhibition of human MMP-8 expressed in Escherichia coli BL21(DE3) using Mca-Pro-Leu-Gly-Leu-Dpa-Ala-Arg-NH2 as substrate preincubated for 30 mins followed by susbstrate addition by photon-counter spectrophotometer analysis
[17] = target: T6, Matrix metalloproteinase-14; assay: Inhibition of human MMP-14 expressed in Escherichia coli BL21(DE3) using Mca-Pro-Leu-Gly-Leu-Dpa-Ala-Arg-NH2 as substrate preincubated for 30 mins followed by susbstrate addition by photon-counter spectrophotometer analysis
[18] = target: T1, Matrix metalloproteinase-9; assay: Inhibition of human MMP-9 expressed in Escherichia coli BL21(DE3) using Mca-Pro-Leu-Gly-Leu-Dpa-Ala-Arg-NH2 as substrate preincubated for 30 mins followed by susbstrate addition by photon-counter spectrophotometer analysis
[19] = target: T5, Interstitial collagenase; assay: Inhibition of human MMP-1 expressed in Escherichia coli BL21(DE3) using Mca-Pro-Leu-Gly-Leu-Dpa-Ala-Arg-NH2 as substrate preincubated for 30 mins followed by susbstrate addition by photon-counter spectrophotometer analysis
[20] = target: T7, Collagenase 3; assay: Inhibition of human MMP-13 expressed in Escherichia coli BL21(DE3) using Mca-Pro-Leu-Gly-Leu-Dpa-Ala-Arg-NH2 as substrate preincubated for 30 mins followed by susbstrate addition by photon-counter spectrophotometer analysis
[21] = target: T3, Matrilysin; assay: Inhibition of human MMP-7 expressed in Escherichia coli BL21(DE3) using Mca-Pro-Leu-Gly-Leu-Dpa-Ala-Arg-NH2 as substrate preincubated for 30 mins followed by susbstrate addition by photon-counter spectrophotometer analysis
[22] = target: T4, 72 kDa type IV collagenase; assay: Inhibition of human MMP-2 expressed in Escherichia coli BL21(DE3) using Mca-Pro-Leu-Gly-Leu-Dpa-Ala-Arg-NH2 as substrate preincubated for 30 mins followed by susbstrate addition by photon-counter spectrophotometer analysis
[23] = target: T9, Stromelysin-2; assay: Inhibition of human MMP-10 expressed in Escherichia coli BL21(DE3) using Mca-Pro-Leu-Gly-Leu-Dpa-Ala-Arg-NH2 as substrate preincubated for 30 mins followed by susbstrate addition by photon-counter spectrophotometer analysis
[24] = test system: HT-1080; assay: Inhibition of cell invasion in human HT-1080 cells for 24 hrs by Calcein AM staining based fluorometric analysis; type: functional; conditions: HT-1080, 24 h

T4 sequence (P08253 whole entry): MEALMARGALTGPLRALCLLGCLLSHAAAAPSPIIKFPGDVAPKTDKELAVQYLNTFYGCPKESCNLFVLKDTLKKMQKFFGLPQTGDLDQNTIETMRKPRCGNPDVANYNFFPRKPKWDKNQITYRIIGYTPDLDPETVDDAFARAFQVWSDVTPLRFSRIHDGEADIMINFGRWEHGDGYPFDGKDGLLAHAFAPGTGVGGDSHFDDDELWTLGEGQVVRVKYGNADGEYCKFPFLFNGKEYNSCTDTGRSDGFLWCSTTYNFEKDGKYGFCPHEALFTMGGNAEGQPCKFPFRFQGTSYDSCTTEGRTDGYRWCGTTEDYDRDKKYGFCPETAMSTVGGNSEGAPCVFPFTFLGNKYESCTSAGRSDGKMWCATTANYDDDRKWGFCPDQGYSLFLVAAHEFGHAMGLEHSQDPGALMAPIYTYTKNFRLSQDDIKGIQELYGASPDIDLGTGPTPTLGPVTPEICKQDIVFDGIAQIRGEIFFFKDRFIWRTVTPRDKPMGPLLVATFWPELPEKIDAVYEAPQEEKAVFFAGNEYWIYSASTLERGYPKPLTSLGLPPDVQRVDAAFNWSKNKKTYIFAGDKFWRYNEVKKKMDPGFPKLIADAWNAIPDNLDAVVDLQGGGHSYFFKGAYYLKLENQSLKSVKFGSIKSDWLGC
T9 sequence (P09238 whole entry): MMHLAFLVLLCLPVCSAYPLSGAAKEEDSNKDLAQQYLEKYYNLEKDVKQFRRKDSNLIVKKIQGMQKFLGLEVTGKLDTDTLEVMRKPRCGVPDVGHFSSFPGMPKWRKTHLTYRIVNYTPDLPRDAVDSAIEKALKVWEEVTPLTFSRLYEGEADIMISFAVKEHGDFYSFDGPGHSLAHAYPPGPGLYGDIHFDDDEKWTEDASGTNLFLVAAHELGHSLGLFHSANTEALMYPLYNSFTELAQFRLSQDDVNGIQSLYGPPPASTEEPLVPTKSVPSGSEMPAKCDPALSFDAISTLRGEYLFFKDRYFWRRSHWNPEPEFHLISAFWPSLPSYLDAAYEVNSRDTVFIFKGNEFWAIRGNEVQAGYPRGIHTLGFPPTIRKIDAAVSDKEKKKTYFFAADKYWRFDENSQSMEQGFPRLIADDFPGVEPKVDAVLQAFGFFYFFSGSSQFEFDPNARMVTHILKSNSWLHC
T1 sequence (P14780 whole entry): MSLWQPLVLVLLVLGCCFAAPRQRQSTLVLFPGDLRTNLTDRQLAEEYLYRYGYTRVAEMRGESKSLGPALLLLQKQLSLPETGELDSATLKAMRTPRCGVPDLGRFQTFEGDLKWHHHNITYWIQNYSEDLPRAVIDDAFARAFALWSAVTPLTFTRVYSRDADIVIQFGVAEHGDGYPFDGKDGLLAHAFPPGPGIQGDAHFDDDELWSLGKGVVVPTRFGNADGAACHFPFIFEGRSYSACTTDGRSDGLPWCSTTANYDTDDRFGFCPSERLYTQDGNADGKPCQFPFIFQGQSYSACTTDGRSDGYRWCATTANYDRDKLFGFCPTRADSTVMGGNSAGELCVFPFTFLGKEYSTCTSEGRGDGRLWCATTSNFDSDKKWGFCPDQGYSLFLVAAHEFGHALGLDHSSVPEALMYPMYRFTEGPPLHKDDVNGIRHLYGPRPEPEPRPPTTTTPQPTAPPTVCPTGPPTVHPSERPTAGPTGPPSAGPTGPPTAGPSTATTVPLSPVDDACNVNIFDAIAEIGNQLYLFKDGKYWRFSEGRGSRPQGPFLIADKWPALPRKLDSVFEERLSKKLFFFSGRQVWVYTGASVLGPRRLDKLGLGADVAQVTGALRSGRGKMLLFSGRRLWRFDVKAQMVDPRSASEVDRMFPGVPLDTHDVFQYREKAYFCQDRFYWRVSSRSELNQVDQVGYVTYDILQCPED
Sequence of Macrophage metalloelastase (P39900 whole entry): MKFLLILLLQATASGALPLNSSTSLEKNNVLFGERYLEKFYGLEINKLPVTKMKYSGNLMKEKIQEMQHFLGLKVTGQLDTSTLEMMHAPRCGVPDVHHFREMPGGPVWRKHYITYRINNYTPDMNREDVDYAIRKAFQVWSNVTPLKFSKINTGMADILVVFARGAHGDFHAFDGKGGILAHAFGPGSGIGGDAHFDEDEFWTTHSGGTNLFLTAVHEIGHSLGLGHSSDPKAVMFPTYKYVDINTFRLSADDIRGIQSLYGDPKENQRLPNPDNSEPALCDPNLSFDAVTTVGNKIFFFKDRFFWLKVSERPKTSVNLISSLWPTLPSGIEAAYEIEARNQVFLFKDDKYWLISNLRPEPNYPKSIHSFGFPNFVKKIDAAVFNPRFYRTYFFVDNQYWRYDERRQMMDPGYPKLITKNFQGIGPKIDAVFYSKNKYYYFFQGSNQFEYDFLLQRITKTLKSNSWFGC
T8 sequence (P22894 whole entry): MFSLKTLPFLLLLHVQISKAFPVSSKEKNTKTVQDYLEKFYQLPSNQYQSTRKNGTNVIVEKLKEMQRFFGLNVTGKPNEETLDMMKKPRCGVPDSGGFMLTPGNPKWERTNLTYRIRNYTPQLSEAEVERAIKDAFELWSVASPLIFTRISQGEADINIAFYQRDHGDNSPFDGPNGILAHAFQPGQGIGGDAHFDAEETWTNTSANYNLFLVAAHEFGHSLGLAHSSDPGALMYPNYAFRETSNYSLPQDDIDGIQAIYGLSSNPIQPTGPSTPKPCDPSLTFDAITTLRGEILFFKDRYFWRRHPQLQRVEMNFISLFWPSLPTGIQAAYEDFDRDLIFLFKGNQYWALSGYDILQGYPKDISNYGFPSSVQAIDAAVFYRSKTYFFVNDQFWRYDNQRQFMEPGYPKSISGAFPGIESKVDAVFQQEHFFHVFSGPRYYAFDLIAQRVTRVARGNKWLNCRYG
T2 sequence (P08254 whole entry): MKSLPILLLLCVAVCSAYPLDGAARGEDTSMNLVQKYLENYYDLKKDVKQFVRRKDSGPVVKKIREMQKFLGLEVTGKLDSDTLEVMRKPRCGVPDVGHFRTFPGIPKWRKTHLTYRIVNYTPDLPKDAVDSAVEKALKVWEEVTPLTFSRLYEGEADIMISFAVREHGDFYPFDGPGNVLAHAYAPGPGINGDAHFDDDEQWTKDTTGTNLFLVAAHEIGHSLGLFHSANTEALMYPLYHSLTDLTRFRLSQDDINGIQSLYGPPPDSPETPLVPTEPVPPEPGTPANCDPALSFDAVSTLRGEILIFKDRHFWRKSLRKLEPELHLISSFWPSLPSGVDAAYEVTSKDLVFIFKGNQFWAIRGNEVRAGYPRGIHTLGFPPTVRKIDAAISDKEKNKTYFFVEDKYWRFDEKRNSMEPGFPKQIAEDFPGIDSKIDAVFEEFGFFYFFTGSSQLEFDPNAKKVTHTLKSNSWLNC

## O=C(O)CS(=O)(=O)c1ccc(-c2ccccc2)cc1
[1]
  IC50: 212000 nM
[2]
  IC50: 364000 nM
[3]
  IC50: 14200 nM
[4]
  IC50: 12500 nM
[5]
  IC50: 380000 nM
[6]
  IC50: 165 nM
[7]
  IC50: 101000 nM

## C=CC[C@H](C(=O)NO)C(CC(C)C)C(=O)N[C@@H](Cc1ccccc1)C(=O)NC (some centres not stated)
[1]
  IC50: 3 nM
  Ki: 3 nM
[2]
  IC50: 30 nM
  Ki: 30 nM
[3]
  IC50: 30 nM
  Ki: 60 nM
[4]
  IC50: 5 nM
  Ki: 4 nM
[8]
  IC50: 3 nM
  Ki: 3 nM
[5]
  IC50: 10 nM
  Ki: 8 nM
[6]
  Ki: 10 nM
[9]
  Ki: 5 nM
[7]
  Ki: 7 nM

## O=C(NO)C1(S(=O)(=O)c2ccc(-n3cc(-c4ccc(-c5ccccc5)cc4)nn3)cc2)CCOCC1
[2]
  IC50: 17.2 nM
[3]
  IC50: > 100 nM
[10]
  IC50: 98 nM
[8]
  IC50: > 100 nM
[5]
  IC50: > 1000 nM
[6]
  IC50: 65 nM
[9]
  IC50: 3.2 nM
[11]
  IC50: 1.4 nM
[12]
  IC50: 51 nM
[7]
  IC50: 0.9 nM

## NCCCCC(NS(=O)(=O)c1ccc(-c2ccccc2)cc1)C(=O)O (configuration not stated)
[13]
  IC50: 40000 nM
[14]
  IC50: 900 nM

## NC(=O)[C@H](CCC(=O)O)NC(=O)[C@@H](CCC(=O)O)NC(=O)CCc1ccc(-c2ccccc2)cc1
[15]
  Ki: 6700 nM
[16]
  Ki: 226 nM
[17]
  Ki: 5900 nM
[18]
  Ki: 1090 nM
[19]
  Ki: > 100000 nM
[20]
  Ki: 689 nM
[21]
  Ki: 24700 nM
[22]
  Ki: 445 nM
[23]
  Ki: 1110 nM

## COc1ccc(S(=O)(=O)N(Cc2ccccc2)[C@@H](C(=O)NO)C(C)C)cc1
[2]
  IC50: 13 nM
[9]
  IC50: 7.7 nM

## COc1ccc(-c2cn(-c3ccc(S(=O)(=O)C4(C(=O)NO)CCOCC4)cc3)nn2)cc1
[2]
  IC50: 9.6 nM
[3]
  IC50: 70 nM
[10]
  IC50: 11.3 nM
[8]
  IC50: 6.1 nM
[5]
  IC50: > 1000 nM
[6]
  IC50: 8.2 nM
[9]
  IC50: 1.2 nM
[11]
  IC50: 0.3 nM
[12]
  IC50: 7.8 nM
[7]
  IC50: 1.4 nM

## O=C(NCCCCC(NS(=O)(=O)c1ccc(-c2ccccc2)cc1)C(=O)O)OCc1ccccc1 (configuration not stated)
[13]
  IC50: 1800 nM
[14]
  IC50: 50 nM

## O=C(NCCCCC(NS(=O)(=O)c1ccc(-c2ccc(Cl)cc2)cc1)C(=O)O)OCc1ccccc1 (configuration not stated)
[13]
  IC50: 800 nM
[14]
  IC50: 5 nM

## CNC(=O)[C@@H](NC(=O)[C@H](CC(C)C)[C@H](O)C(=O)NO)C(C)(C)C
[6]
  IC50: 1.8 nM

## COc1ccccc1Nc1nc(-c2sc(NC(C)=O)nc2C)cs1
[24]
  IC50: 1000 nM

## NC(=O)[C@H](CCC(=O)O)NC(=O)[C@@H](CCC(=O)O)NC(=O)CCc1cc(-c2ccc(-c3cccc(Cl)c3)cc2)no1
[15]
  Ki: 62 nM
[16]
  Ki: 181 nM
[17]
  Ki: 2060 nM
[18]
  Ki: 565 nM
[19]
  Ki: 17900 nM
[20]
  Ki: 40 nM
[21]
  Ki: 1200 nM
[22]
  Ki: 76 nM
[23]
  Ki: 48 nM

## CO[C@H](C(=O)NO)[C@@H](CC(C)C)C(=O)N[C@H](C(=O)Nc1ccccn1)C(C)(C)C [SOLIMASTAT]
[1]
  IC50: 70 nM
[3]
  IC50: 5 nM
[4]
  IC50: 80 nM

## CN(C)c1ccc(O)c2c1C[C@H]1C[C@H]3[C@H](N(C)C)C(O)=C(C(N)=O)C(=O)[C@@]3(O)C(O)=C1C2=O [MINOCYCLINE]
[1]
  IC50: 180000 nM
[2]
  IC50: 290000 nM
[3]
  IC50: 125000 nM

## CC(C)ON([C@@H](CCNC(=O)OCc1ccccc1)C(=O)NO)S(=O)(=O)c1ccc(-c2ccccc2)cc1
[1]
  IC50: 16 nM
[2]
  IC50: 130 nM
[3]
  IC50: 10000 nM
[4]
  IC50: 0.41 nM
[5]
  IC50: > 3000 nM
[6]
  IC50: 7.7 nM
